# According to a melting point compilation (Tetko et al.; mined from patent text by program, amines drawn as free bases though some values may be those of a salt):
row,Compound,melting point [°C]
1,COc1ccc(S(=O)(=O)Nc2ccc(COc3ccc4c(c3)CCC(CN(C)C)C4)cc2)cc1 (centres undefined),137 to 140
2,COCCC(=O)N[C@H]1CC[C@H](CCN2CCN(c3ncc(C)c4occc34)CC2)CC1,177
3,Cc1nc(-n2cc(Cl)ccc2=O)sc1C(=O)NCc1ccccc1,173 to 174
4,Cc1ccnc2c1C(=O)c1ccccc1C2=O,198 to 201
5,CC(=O)NCC(C)(C)c1ccc(C(=O)Nc2cn3cc(-n4ccnc4)ccc3n2)cc1,242 to 244
6,CC1COC(=O)N1c1cc(-c2ncnc(Nc3cccc(Cl)c3)n2)ccn1 (centres undefined),191 to 193
7,CCOC(=O)Cc1sc(SCc2cc(O)nc(C)n2)nc1C,131 to 132
8,Cc1nc(NCC(C)C)nc(N2CCc3ccccc3C2C)c1C (centres undefined),93 to 95
9,CS(=O)(=O)Nc1c(C(=O)c2cccc(Br)c2)[nH]c2cc(Cl)ccc12,184 to 185
10,NC1=NC(=O)N(C2CCCCC2)CC1Br (centres undefined),152 to 156
11,Cc1ccc(N2N=C(C(N)=O)NC2c2c(F)cccc2F)cc1COCC(F)(F)C(F)(F)F (centres undefined),182 to 185
12,CC(C)(C)c1ccc(CCC(O)CC2CCCCC2)cc1NC(=O)NCC1c2ccccc2Oc2ccccc21 (centres undefined),156 to 157
13,Cn1cccc1C1=CC(=O)c2ncccc2C1=O,167 to 168
14,CC(C)NC(=O)c1cc(-n2c(=O)cc(C(F)(F)F)[nH]c2=O)c(F)cc1Cl,234 to 239
15,CC(C)(C)OC(=O)N1CCn2c(c(C(=O)O)c(C#N)c2-c2ccccc2)C1,212 to 215
16,CCCCCCCCCCC[C@@H](O)CC(=O)OCC(=O)c1ccc(Br)cc1,109 to 110
17,CC(=O)c1cccc(Nc2nnc(-c3cccc(Oc4cccc(C(F)(F)F)c4)c3)s2)c1,130 to 133
18,CC(C)NC(C)C(=O)Nc1cccc2c1C(=O)c1c(NC(=O)C(C)NC(C)C)cccc1C2=O (centres undefined),105 to 106
19,Cc1cccc(C)c1NC(=O)CN1CCN(C=O)CC1,139 to 140
20,O=C(O)c1cccc(Oc2cccc(-c3nn(Cc4ccc(C(F)(F)P(=O)(O)O)c(Br)c4)c(=Nc4ccc(Cl)c(Cl)c4)s3)c2)c1,210 to 215
21,O=C(O)CCC/C=C/c1nn(-c2ccc([N+](=O)[O-])cc2)c2c1CCC2,163 to 164
22,CCOC(=O)COc1cc(-c2ccccc2)nc2ccccc12,96
23,C[C@H](O)Cn1c(=O)c(Oc2ccc(F)cc2F)cc2cnc(N[C@@H](C)CO)nc21,182 to 184
24,COc1ccc2c(-c3sccc3C)noc2c1Cl,154 to 156
25,CCOc1ccc2[nH]cc(C(=O)NCc3ccccn3)c(=O)c2c1,222 to 224

row,Compound,melting point [°C]
1,COc1ccc2c(c1)C(C)CC1C2CCC2(C)C(=O)CCC12 (centres undefined),108 to 109
2,COC(=O)C(C)(C)Oc1ccc(C(=O)CN2CCN(c3ccncc3)CC2)cc1,88 to 90
3,CCC(CC)(NCCCn1cnc(CO)c1)c1ccccc1,82 to 84
4,O=[N+]([O-])c1ccc(Oc2ccc(F)cc2F)cc1,58 to 62
5,COc1ccc(C(=O)CBr)c(F)c1,67 to 69
6,Cc1cc2c(cc1O)C(C)(C)CC2,70 to 71
7,COc1cc(Nc2c(C#N)cnc3cc(-c4cnc(C=O)n4C)ccc23)c(Cl)cc1Cl,186 to 189
8,O=S1(=O)NCN(C2CC2)c2c1ccc(F)c2Cl,141 to 143
9,Cn1ccc(=O)c(OCc2ccccc2)c1C(O)c1ccccn1 (centres undefined),202 to 204
10,OC(CSc1nccs1)(Cn1cncn1)c1ccc(Cl)cc1Cl (centres undefined),110 to 111
11,COC(=O)C1=C(C)NC(C)=C(c2nnco2)C1c1cccc(Cl)c1Cl (centres undefined),225 to 229
12,COC(=O)C1=C(C)NC(C(C)(OC)OC)=C(C(=O)OC)C1c1ccccc1Cl (centres undefined),145 to 146
13,Cc1cc2c(c3ccc(=O)[nH]c13)OCC2C=O (centres undefined),230 to 232
14,CCCn1c(=O)c2[nH]c(-c3cc(C)n(CC(=O)Nc4ccc(Br)cc4)n3)nc2n(CCC)c1=O,270 to 273
15,COc1ccc(CCNc2cc(-n3cccn3)nc(-c3cccs3)n2)cc1OC,116 to 117
16,CCCC(=O)c1nc(CCC)[nH]c1C,94 to 95
17,Cc1ccc(-c2nc(Cl)c3ccccc3n2)cc1,113 to 115
18,CCOC(=O)c1cc(F)ccc1[N+](=O)[O-],< 50
19,COC(=O)N1CCc2ccc(N)cc2CC1,100 to 104
20,CC(=O)N1Cc2nc(Cl)nc(Nc3ccc(F)c(Cl)c3)c2N=C1Cl,178
21,Nc1cc(-c2noc(-c3cnn4c(C(F)(F)F)cc(-c5ccc(Cl)c(Cl)c5)nc34)n2)ccn1,262
22,COc1ccc(-c2nc(-c3ccccc3)c(-c3ccncc3)n2C)cc1,193 to 194
23,NNN=CNCCC(=O)O,177 to 179
24,COCCOCOc1ccc2cc(C(=O)O)ccc2c1,110
25,CN1CCC(OC(=O)c2ccccc2Nc2ccnc3cc(C(F)(F)F)ccc23)CC1,116

row,Compound,melting point [°C]
1,CN1CCC2(CC1)c1ccccc1C(C)(O)c1c(O)cccc12 (centres undefined),151 to 154
2,C[C@@H]1CN(C(=O)OC(C)(C)C)C[C@H]2Cc3cc(Br)c(CO)nc3N21,110 to 112
3,C=CCCC(F)c1cc(C2(c3ccc(OC(F)F)cc3)N=C(N)N(C)C2=O)ccc1F (centres undefined),50 to 55
4,NC(=O)OCC1COC(C(F)(F)F)(C(F)(F)F)O1 (centres undefined),52 to 54
5,FC(F)(F)c1ccc2nnc(-c3c(Cl)cccc3Cl)n2c1,104 to 105
6,CCc1cc(Cl)c(C)c(Oc2c(C)cc(C)cc2C)n1,42 to 44
7,COc1ccc(Cn2cnc3c(-c4ccco4)nc(C(C)C)nc32)cc1,123
8,NCCCN1CCC(c2c[nH]c3cc(F)ccc23)CC1,102
9,CC(=O)C1CCC(=O)N1C(C)=O (centres undefined),62
10,Nc1ccc(N2CCN(CCCC(=O)c3ccc(F)cc3)CC2)nc1N,128 to 130
11,CCCCN(C)C(=O)CCCCCCCCCCSC1Cc2cc(O)ccc2C2CCC3(C)C(O)CCC3C12 (centres undefined),71 to 75
12,Cc1noc(C)c1CC(C)(NC(=O)OC1C2CC3CC(C2)CC1C3)C(=O)NCCc1ccccc1 (centres undefined),70 to 73
13,CC(C)(Cc1ccc(F)cc1)NC(=O)c1coc(C2C3CCC(O3)C2Cc2ccccc2CCC(=O)O)n1 (centres undefined),68
14,Sc1nc2cc(Cl)c(Cl)cc2s1,234 to 236
15,Cn1cc(Oc2cccc(C(F)(F)F)c2)c(=O)c(-c2cccc(C(F)(F)F)c2)c1,93 to 95
16,CCNC(=O)CCCC1CCN(Cc2cnc3c(C)c(NC(=O)c4ccc(-c5ccc(F)cc5)cc4)ccc3c2)CC1,217 to 220
17,CC(C)(C)OC(=O)NNC(=S)Nc1ccc(F)cc1,158 to 160
18,O=C(NCc1ccccc1Cl)C1Cc2ccccc2N1S(=O)(=O)c1ccc(-c2cccc(C(F)(F)F)c2)cc1 (centres undefined),142 to 144
19,CCc1cnc2c(NC(=O)c3c(Cl)cccc3Cl)cccc2c1CCBr,187 to 188
20,CCOC(=O)c1cc(-c2ccc(Br)cc2)c(=O)n(Cc2ccc(Cl)cc2Cl)c1,152 to 154
21,Cc1ccc(-c2nnc(N3CCC(CO)CC3)nc2-c2ccc(C)cc2)cc1,152 to 154
22,COC(=O)N(C)CCCCCC(=O)OC[C@@H]1CC(c2ccc(-c3ccc(N4C[C@H](Cn5ccnn5)OC4=O)cc3F)cn2)=NO1,103
23,COc1cc2c(cc1OS(N)(=O)=O)CCN(Cc1cccc(NS(C)(=O)=O)c1)C2,151 to 152
24,CCOC(=O)c1ncn2c3cccc(I)c3c(=O)n(C)c12,266 to 267
25,OCCn1nc(-c2ccc(F)cc2)c(-c2ccncc2)c1C1CC1,155 to 157

row,Compound,melting point [°C]
1,O=C(C1=NN(CC(F)(F)F)C(=O)CN1)c1ccccc1,142 to 145
2,Cn1ccnc1Sc1ccccc1[N+](=O)[O-],117 to 119
3,CC(=O)CCc1cc(-c2ccncc2)sc1-c1ccncc1,162 to 163
4,N#Cc1c(O)ccc2ccccc12,160 to 161
5,CCOCCOc1ccccc1COc1ccc2c(c1)C=C(C(=O)O)CCS2(=O)=O,134 to 136
6,Cn1cnc(-c2ccccc2)c1-c1ccncc1,161 to 162
7,CSc1ncnn1C[C@]1(c2cccc(F)c2)O[C@@H]1c1ccccc1Cl (relative stereo),98
8,Cc1ccc(S(=O)(=O)Oc2ccc(S(=O)(=O)C3=Cc4ccccc4C3)cc2)cc1,174
9,COC(=O)c1ccc2[nH]c3ccccc3c2c1,180 to 181
10,CCN(CC)CCCNc1nc2ccccc2n(-c2ccc(Cl)cc2)c1=O,123 to 124
11,CC(C)(C#N)c1cc(CCCn2cncn2)cc(C(C)(C)C#N)c1,102 to 104
12,CCn1c2ccc3ccccc3c2c2cccc(C)c21,79 to 83
13,O=C[C@H](OCc1ccccc1)[C@@H](OCc1ccccc1)[C@H](OCc1ccccc1)[C@H](O)COCc1ccccc1,151
14,CC(=NC(=Nc1ccccc1)N1CCOCC1)NCc1ccccc1,126 to 129
15,N#Cc1cnn2c(-c3ccc(Cl)cc3)ccnc12,244 to 245
16,O=[N+]([O-])c1cn2c(n1)O[C@@H](COc1ccc(N3CCN(Cc4ccc(Oc5ccc(C(F)(F)F)cn5)cc4)CC3)cc1)CC2,229 to 230
17,Cc1ccc(-c2ncc(C)cn2)cc1,122 to 123
18,CCCCc1nc2cccc(O)c2n1Cc1ccc(-c2ccccc2-c2nnn[nH]2)cc1,186 to 188
19,C#CC(CCCCC)OC(c1ccccc1)(c1ccccc1)c1ccccc1 (centres undefined),65 to 66.5
20,CN(C)c1ccc(-n2c(CC(=O)O)c(C(=O)O)c3cc(Oc4ccc(C(F)(F)F)cc4)ccc32)cc1,235 to 237
21,O=c1[nH]c2cc(Cl)ccc2c(=O)c2c(-c3ccccc3)n[nH]c12,328 to 331
22,Cc1cccc(-c2[nH]c(C3CC3)nc2-c2cccc(-c3ccc(C(=O)NC4CCOCC4)cc3)c2)n1,127 to 128
23,CCOC(=O)c1cccc(C=Cc2ccccc2)c1,82
24,COCC(=O)Nc1c(Cl)c(Cl)cc2nc(OC)c(OC)nc12,171 to 173
